In ChEMBL document CHEMBL1201862, “PubChem BioAssay data set” (2004):
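In this assay, cells in 96-well plates receive the compound at five concentrations for 48 hours. Endpoints are linearly interpolated between the surrounding concentrations. At the GI50, growth is halved.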 Calls of active or inactive are those of the source. Rule as the data show it: active = GI50 up to about 1.1 µM and inactive = higher.

Assays:
Experiment in all cases: DTP human tumour cell line panel, 48 h
NCI-H522 = test system: NCI-H522
OVCAR-8 = test system: OVCAR-8
UACC-62 = test system: UACC-62
A498 = test system: A498
OVCAR-5 = test system: OVCAR-5
LOX IMVI = test system: LOX IMVI
SK-MEL-28 = test system: SK-MEL-28
DLD-1 = test system: DLD-1
U-251 = test system: U-251
UO-31 = test system: UO-31
DMS-273 = test system: DMS-273
SN12C = test system: SN12C
SF-295 = test system: SF-295
TK-10 = test system: TK-10
NCI-H460 = test system: NCI-H460
786-0 = test system: 786-0
IGROV-1 = test system: IGROV-1
SK-OV-3 = test system: SK-OV-3
HCT-15 = test system: HCT-15
SW-620 = test system: SW-620
OVCAR-3 = test system: OVCAR-3
COLO 205 = test system: COLO 205
HOP-62 = test system: HOP-62
M19-MEL = test system: M19-MEL
SNB-78 = test system: SNB-78
HOP-92 = test system: HOP-92
SR = test system: SR
HT-29 = test system: HT-29
RPMI-8226 = test system: RPMI-8226
A549 = test system: A549
SNB-75 = test system: SNB-75
SK-MEL-5 = test system: SK-MEL-5
K562 = test system: K562
KM12 = test system: KM12
UACC-257 = test system: UACC-257
DMS-114 = test system: DMS-114
NCI-H23 = test system: NCI-H23
HL-60 = test system: HL-60
LXFL 529 = test system: LXFL 529
Malme-3M = test system: Malme-3M
EKVX = test system: EKVX
HCC 2998 = test system: HCC 2998
M14 = test system: M14
HOP-18 = test system: HOP-18
NCI-H226 = test system: NCI-H226
SNB-19 = test system: SNB-19
SF-539 = test system: SF-539
HCT-116 = test system: HCT-116
CCRF-CEM = test system: CCRF-CEM
SK-MEL-2 = test system: SK-MEL-2
OVCAR-4 = test system: OVCAR-4
MOLT-4 = test system: MOLT-4
SF-268 = test system: SF-268
RXF 393 = test system: RXF 393
MCF7 = test system: MCF7
CAKI-1 = test system: CAKI-1
NCI/ADR-RES = test system: NCI/ADR-RES
KM-20L2 = test system: KM-20L2
XF498 = test system: XF498

SMILES: Cc1c(-c2ccccc2)c(=O)oc2ccc(Cl)cc12
- GI50 (NCI-H522): 33.7 µM (inactive)
- GI50 (OVCAR-8): 53.3 µM (inactive)
- GI50 (UACC-62): 59.8 µM (inactive)
- GI50 (A498): > 100 µM (inactive)
- GI50 (OVCAR-5): > 100 µM (inactive)
- GI50 (LOX IMVI): > 100 µM (inactive)
- GI50 (SK-MEL-28): > 100 µM (inactive)
- GI50 (DLD-1): > 100 µM (inactive)
- GI50 (U-251): 46.9 µM (inactive)
- GI50 (UO-31): > 100 µM (inactive)
- GI50 (DMS-273): 87.1 µM (inactive)
- GI50 (SN12C): > 100 µM (inactive)
- GI50 (SF-295): > 100 µM (inactive)
- GI50 (TK-10): 33.3 µM (inactive)
- GI50 (NCI-H460): 70.5 µM (inactive)
- GI50 (786-0): 36.5 µM (inactive)
- GI50 (IGROV-1): > 100 µM (inactive)
- GI50 (SK-OV-3): 34.4 µM (inactive)
- GI50 (HCT-15): > 100 µM
- GI50 (SW-620): > 100 µM (inactive)
- GI50 (OVCAR-3): > 100 µM (inactive)
- GI50 (COLO 205): > 100 µM (inactive)
- GI50 (HOP-62): 27.9 µM (inactive)
- GI50 (M19-MEL): > 100 µM (inactive)
- GI50 (SNB-78): 26 µM (inactive)
- GI50 (HOP-92): 32.7 µM (inactive)
- GI50 (SR): > 100 µM (inactive)
- GI50 (HT-29): > 100 µM (inactive)
- GI50 (RPMI-8226): > 100 µM (inactive)
- GI50 (A549): > 100 µM (inactive)
- GI50 (SNB-75): 16.1 µM (inactive)
- GI50 (SK-MEL-5): 40.3 µM (inactive)
- GI50 (K562): > 100 µM (inactive)
- GI50 (KM12): > 100 µM (inactive)
- GI50 (UACC-257): 8.55 µM (inactive)
- GI50 (DMS-114): 26.6 µM (inactive)
- GI50 (NCI-H23): 57.8 µM (inactive)
- GI50 (HL-60): > 100 µM (inactive)
- GI50 (LXFL 529): > 100 µM (inactive)
- GI50 (Malme-3M): 99.3 µM (inactive)
- GI50 (EKVX): 64.7 µM (inactive)
- GI50 (HCC 2998): > 100 µM (inactive)
- GI50 (M14): 26.7 µM (inactive)
- GI50 (HOP-18): > 100 µM (inactive)
- GI50 (NCI-H226): > 100 µM (inactive)
- GI50 (SNB-19): 63 µM (inactive)
- GI50 (SF-539): 38.2 µM (inactive)
- GI50 (HCT-116): 38.1 µM (inactive)
- GI50 (CCRF-CEM): > 100 µM (inactive)
- GI50 (SK-MEL-2): > 100 µM (inactive)
- GI50 (OVCAR-4): 53.3 µM (inactive)
- GI50 (MOLT-4): > 100 µM (inactive)
- GI50 (SF-268): 90.2 µM (inactive)

SMILES: CC(C)(C)c1ccc2c(c1)OP1(Oc3c(Cl)cc(Cl)c4cccnc34)(O2)Oc2ccc(C(C)(C)C)cc2O1
- GI50 (NCI-H522): 2.9 µM (inactive)
- GI50 (OVCAR-8): 5.31 µM (inactive)
- GI50 (UACC-62): 5.37 µM (inactive)
- GI50 (A498): 14.1 µM (inactive)
- GI50 (OVCAR-5): 13.7 µM (inactive)
- GI50 (LOX IMVI): 5.55 µM (inactive)
- GI50 (SK-MEL-28): 11.3 µM (inactive)
- GI50 (DLD-1): 5.2 µM (inactive)
- GI50 (U-251): 4.63 µM (inactive)
- GI50 (UO-31): 5.08 µM (inactive)
- GI50 (DMS-273): 5.04 µM (inactive)
- GI50 (RXF 393): 13.3 µM (inactive)
- GI50 (SN12C): 11 µM (inactive)
- GI50 (SF-295): 5.42 µM (inactive)
- GI50 (NCI-H460): 3.8 µM (inactive)
- GI50 (IGROV-1): 8.55 µM (inactive)
- GI50 (SK-OV-3): 11.9 µM (inactive)
- GI50 (MCF7): 4.58 µM (inactive)
- GI50 (HCT-15): 4.53 µM
- GI50 (SW-620): 6.43 µM (inactive)
- GI50 (OVCAR-3): 4.78 µM (inactive)
- GI50 (COLO 205): 13.4 µM (inactive)
- GI50 (HOP-62): 5.01 µM (inactive)
- GI50 (M19-MEL): 3.12 µM (inactive)
- GI50 (SNB-78): 23 µM (inactive)
- GI50 (HOP-92): 2.4 µM (inactive)
- GI50 (HT-29): 5.2 µM (inactive)
- GI50 (RPMI-8226): 3.59 µM (inactive)
- GI50 (A549): 6 µM (inactive)
- GI50 (CAKI-1): 3.78 µM (inactive)
- GI50 (SNB-75): 15.5 µM (inactive)
- GI50 (SK-MEL-5): 8.51 µM (inactive)
- GI50 (K562): 3.94 µM (inactive)
- GI50 (KM12): 6.87 µM (inactive)
- GI50 (NCI/ADR-RES): 8.11 µM (inactive)
- GI50 (KM-20L2): 4.92 µM (inactive)
- GI50 (UACC-257): 4.03 µM (inactive)
- GI50 (XF498): 13.5 µM (inactive)
- GI50 (DMS-114): 2.62 µM (inactive)
- GI50 (NCI-H23): 6.38 µM (inactive)
- GI50 (HL-60): 2.65 µM (inactive)
- GI50 (Malme-3M): 10.8 µM (inactive)
- GI50 (EKVX): 5.16 µM (inactive)
- GI50 (HCC 2998): 11.3 µM (inactive)
- GI50 (HOP-18): 9.98 µM (inactive)
- GI50 (NCI-H226): 8.97 µM (inactive)
- GI50 (SNB-19): 7.53 µM (inactive)
- GI50 (SF-539): 7.78 µM (inactive)
- GI50 (HCT-116): 5.22 µM (inactive)
- GI50 (CCRF-CEM): 3.12 µM (inactive)
- GI50 (SK-MEL-2): 10.2 µM (inactive)
- GI50 (OVCAR-4): 10.3 µM (inactive)
- GI50 (MOLT-4): 2.81 µM (inactive)
- GI50 (SF-268): 7.16 µM (inactive)
